Structures are written as SMILES. Converted amounts (≈) assume the structure as drawn. Residues, ends and D or L forms follow the SMILES beside them.

Assay [1] concerns Candida species. The note with it: cited from earlier work. An excerpt:
NCR169, a cationic peptide (net charge at pH7 is 1.91) consisting of 38 amino acids with four cysteine residues, is crucial for bacteroid differentiation, and its absence results in no nitrogen fixation but premature nodule senescence. Two NMR structures of NCR169 produced in Escherichia coli resulting from different disulfide bond patterns have been determined by utilizing the ^1H-^15N heteronuclear single-quantum coherence (HSQC) NMR technique.

The test system of assay [2] is Pseudomonas aeruginosa (ATCC 27853). In kind it is cell-based. The note with it: ATCC 27853, 3 h, pH 7.4. The essentials: (§1)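 Peptides in sterile water, 2-fold series 25 to […], incubated 3 h with ~10^7 log-phase bacteria in potassium-phosphate buffer pH 7.4. Samples spotted on LB agar, grown overnight at 37 °C; MBC = lowest concentration leaving no viable bacteria.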

The test system of assay [3] is tested bacteria (ESKAPE pathogens, Listeria monocytogenes, Salmonella enterica). In kind it is cell-based. To be noted: 3 h, pH 7.4. The essentials: as §1
For assay [4], the system named is Acinetobacter baumannii (ATCC 17978). Format: cell-based. To be noted: ATCC 17978, 3 h, pH 7.4. Summed up: as §1
In assay [5] the test system is Salmonella enterica (ATCC 13076). Format: cell-based. To be noted: ATCC 13076, 3 h, pH 7.4. The essentials: as §1
Assay [6] concerns Listeria monocytogenes (ATCC 19111). Format: cell-based. To be noted: ATCC 19111, 3 h, pH 7.4. The essentials: as §1
Assay [7] deals with Escherichia coli (ATCC 8739). Format: cell-based. To be noted: Escherichia coli ATCC 8739; ~10^7 log phase bacteria, 3 h in PPB pH 7.4; peptide 25 to 0.125 μM 2-fold series; plated on LB agar, overnight 37 °C. Summed up:
as §1

Assay [8] relates to Klebsiella pneumoniae (NCTC 13440). In kind it is cell-based. To be noted: NCTC 13440, 3 h, pH 7.4. Summed up: as §1
Assay [9] has as its system Enterococcus faecalis (ATCC 29212). In kind it is cell-based. To be noted: Enterococcus faecalis ATCC 29212; ~10^7 log phase bacteria, 3 h in potassium-phosphate buffer (PPB) pH 7.4; peptide 25 to 0.125 μM 2-fold series; 5 μl on LB agar, overnight 37 °C. Summed up: as §1
For assay [10], the system named is Staphylococcus aureus (HNCMO112011). Format: cell-based. To be noted: HNCMO112011, 3 h, pH 7.4. The essentials: as §1
Assay [11] concerns E. coli (ATCC 35218). In kind it is cell-based, Escherichia coli. The note with it: ATCC 35218, 3 h, pH 7.4. From the text:
(§2) The bacterial strains for the antimicrobial assay were obtained from the ATCC (American Type Culture Collection, Manassas, VA, USA) and NCTC (National Collection of Type Cultures, Salisbury, UK). Gram-negative strains were Pseudomonas aeruginosa (ATCC 27853), Escherichia coli (ATCC 8739, ATCC 35218, and ATCC 25922), Salmonella enterica (ATCC 13076), Klebsiella pneumoniae (NCTC 13440), Acinetobacter baumannii (ATCC 17978) and the Gram-positive strains were Enterococcus faecalis (ATCC 29212), Listeria monocytogenes (ATCC 19111), and Staphylococcus aureus (HNCMO112011 and ATCC 25923).
(§3) Determination of antibacterial activity for the peptides was carried out by utilizing a minimum bactericidal concentration (MBC) bioassay. Synthesized peptides were dissolved in sterile water and used from 25 to 0.125 μM in 2-fold dilution series and incubated with ~10^7 log phase bacteria in Potassium-Phosphate Buffer (PPB, pH: 7.4) for three hours as described earlier. After that, 5 μl of each sample was placed on LB agar and the growth of bacteria was monitored after overnight incubation at 37 °C. The lowest concentration of the antimicrobial agents that completely eliminated viable bacteria was considered the minimal bactericidal concentration (MBC).

Assay [12] has as its system E. coli (ATCC 25922). Format: cell-based, Escherichia coli. The note with it: ATCC 25922, 3 h, pH 7.4.
Text: as §2, §3

For assay [13], the system named is S. aureus (ATCC 25923). In kind it is cell-based, Staphylococcus aureus. The note with it: ATCC 25923, 3 h, pH 7.4.
Text: as §2, §3

With `CC[C@H](C)[C@H](NC(=O)[C@H](CCCCN)NC(=O)[C@H](Cc1ccccc1)NC(=O)[C@H](CC(C)C)NC(=O)[C@@H]1CCCN1C(=O)[C@H](CCCCN)NC(=O)[C@H](CCCCN)NC(=O)[C@H](CO)NC(=O)[C@@H](N)CCCCN)C(=O)N[C@@H](Cc1c[nH]c2ccccc12)C(=O)N[C@@H](CCCCN)C(=O)N[C@@H](CS)C(=O)N[C@H](C(=O)N[C@@H](CCC(=O)O)C(=O)N[C@@H](CC(N)=O)C(=O)N[C@H](C(=O)N[C@@H](CS)C(=O)N[C@H](C(=O)N[C@@H](CC(C)C)C(=O)N[C@@H](Cc1c[nH]c2ccccc12)C(=O)N[C@@H](Cc1ccc(O)cc1)C(=O)N[C@@H](CCCCN)C(N)=O)C(C)C)C(C)C)C(C)C` [NCR169C17–38] (H-KSKKPLFKIWKCVENVCVLWYK-NH2; N-terminus assumed), in assay [1], the “antifungal activity against different Candida species” value is listed as “possess antifungal activity”. For the same compound, the “Minimal bactericidal concentration (MBC) P. a.” value in assay [2] was 3.1 µM (≈ 8.49 µg/mL). For the same compound, the “MBC against most or all of the tested bacteria” value in assay [3] was 3.1 µM. Besides, in [4], the “Minimal bactericidal concentration (MBC) A. b.” value was 3.1 µM (≈ 8.49 µg/mL). Further, the “Minimal bactericidal concentration (MBC) S. e.” value in assay [5] is 3.1 µM (≈ 8.49 µg/mL). Besides, in assay [6], the “Minimal bactericidal concentration (MBC) L. m.” value stood at 3.1 µM (≈ 8.49 µg/mL). In [7], the “Minimal bactericidal concentration (MBC) E. c.” value came out at 1.6 µM (≈ 4.38 µg/mL). Moreover, the “Minimal bactericidal concentration (MBC) K. p.” value in assay [8] worked out at 3.1 µM (≈ 8.49 µg/mL). Besides, the “Minimal bactericidal concentration (MBC) E. f.” value in [9] was 6.3 µM (≈ 17.3 µg/mL). For the same compound, the “Minimal bactericidal concentration (MBC) S. a.” value in [10] worked out at 3.1 µM (≈ 8.49 µg/mL). Further, the “MBC E.c. ATTC 35218” value in [11] was found to be 1.6 µM (≈ 4.38 µg/mL). In addition, the “MBC E.c. ATTC 25922” value in [12] was found to be 1.6 µM (≈ 4.38 µg/mL). Moreover, in assay [13], the “MBC S.a. ATTC 25923” value was 3.1 µM (≈ 8.49 µg/mL).

Source of the values: publication PMC9917201, “Enhanced Antibacterial Activity of Substituted Derivatives of NCR169C Peptide” (International Journal of Molecular Sciences, 2023).
